Results from BindingDB's records for doi:10.1016/0167-0115(94)90537-1 (Universit&Eacute, 1994).
Square brackets hold non-standard residues; d marks the D form. Peptide text beside a SMILES is read from it. ξ: configuration not given here. Ile(3ξ) = CCC(C)[C@H](N)C(=O)O

Target: T1, VIP peptides (Rattus norvegicus, UniProt P01283)
T1 sequence (P01283 whole entry): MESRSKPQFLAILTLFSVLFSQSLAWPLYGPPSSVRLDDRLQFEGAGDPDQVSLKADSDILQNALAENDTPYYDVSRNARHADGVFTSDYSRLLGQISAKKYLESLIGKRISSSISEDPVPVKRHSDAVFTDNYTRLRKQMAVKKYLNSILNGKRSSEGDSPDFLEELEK

SMILES	Ki [µM]
CC[C@H](C)[C@H](NC(=O)[C@H](CO)NC(=O)[C@H](CC(N)=O)NC(=O)[C@H](CC(C)C)NC(=O)[C@H](Cc1ccc(O)cc1)NC(=O)[C@H](CCCCN)NC(=O)[C@H](CCCCN)NC(=O)[C@@H](NC(=O)[C@H](C)NC(=O)[C@H](CCSC)NC(=O)[C@H](CCC(N)=O)NC(=O)[C@H](CCCCN)NC(=O)[C@H](CCCN=C(N)N)NC(=O)[C@H](CC(C)C)NC(=O)[C@H](CCCN=C(N)N)NC(=O)[C@@H](NC(=O)[C@H](Cc1ccc(O)cc1)NC(=O)[C@H](CC(N)=O)NC(=O)[C@H](CC(=O)O)NC(=O)[C@@H](NC(=O)[C@H](Cc1ccccc1)NC(=O)[C@@H](NC(=O)[C@H](C)NC(=O)[C@H](CC(=O)O)NC(=O)[C@H](CO)NC(=O)[C@@H](N)Cc1ccccc1)C(C)C)[C@@H](C)O)[C@@H](C)O)C(C)C)C(=O)N[C@@H](CC(C)C)C(=O)N[C@@H](CC(N)=O)C(N)=O [[Phe1]VIP] (H-FSDAVFTDNYTRLRKQMAVKKYLNSILN-NH2)	0.03
CC[C@H](C)[C@H](NC(=O)CNC(=O)[C@H](CCC(=O)O)NC(=O)[C@H](CO)NC(=O)[C@@H](N)Cc1cnc[nH]1)C(=O)N[C@@H](Cc1ccccc1)C(=O)N[C@H](C(=O)N[C@@H](CC(=O)O)C(=O)N[C@@H](CO)C(=O)N[C@@H](Cc1ccc(O)cc1)C(=O)N[C@@H](CO)C(=O)N[C@@H](CCCNC(=N)N)C(=O)N[C@@H](Cc1ccc(O)cc1)C(=O)N[C@@H](CCCNC(=N)N)C(=O)N[C@@H](CCCCN)C(=O)N[C@@H](CCC(N)=O)C(=O)N[C@@H](CCSC)C(=O)N[C@@H](C)C(=O)N[C@H](C(=O)N[C@@H](CCCCN)C(=O)N[C@@H](CCCCN)C(=O)N[C@@H](Cc1ccc(O)cc1)C(=O)N[C@@H](CC(C)C)C(=O)N[C@@H](C)C(=O)N[C@@H](C)C(=O)N[C@H](C(=O)N[C@@H](CC(C)C)C(N)=O)C(C)C)C(C)C)[C@@H](C)O [PACAP(1-27)]	0.002
CCC(C)[C@H](NC(=O)CN)C(=O)N[C@@H](Cc1ccccc1)C(=O)N[C@H](C(=O)N[C@@H](CC(=O)O)C(=O)N[C@@H](CO)C(=O)N[C@@H](Cc1ccc(O)cc1)C(=O)N[C@@H](CO)C(=O)N[C@@H](CCCN=C(N)N)C(=O)N[C@@H](Cc1ccc(O)cc1)C(=O)N[C@@H](CCCN=C(N)N)C(=O)N[C@@H](CCCCN)C(=O)N[C@@H](CCC(N)=O)C(=O)N[C@@H](CCSC)C(=O)N[C@@H](C)C(=O)N[C@H](C(=O)N[C@@H](CCCCN)C(=O)N[C@@H](CCCCN)C(=O)N[C@@H](Cc1ccc(O)cc1)C(=O)N[C@@H](CC(C)C)C(=O)N[C@@H](C)C(=O)N[C@@H](C)C(=O)N[C@H](C(=O)N[C@@H](CC(C)C)C(N)=O)C(C)C)C(C)C)[C@@H](C)O (some centres undefined) [PACAP(4-27)] (H-G[Ile(3ξ)]FTDSYSRYRKQMAVKKYLAAVL-NH2)	0.8
CCC(C)[C@H](NC(=O)CN)C(=O)N[C@@H](Cc1ccccc1)C(=O)N[C@H](C(=O)N[C@@H](CC(=O)O)C(=O)N[C@@H](CO)C(=O)N[C@@H](Cc1ccc(O)cc1)C(=O)N[C@@H](CO)C(=O)N[C@@H](CCCN=C(N)N)C(=O)N[C@@H](Cc1ccc(O)cc1)C(=O)N[C@@H](CCCN=C(N)N)C(=O)N[C@@H](CCCCN)C(=O)N[C@@H](CCC(N)=O)C(=O)N[C@@H](CCSC)C(=O)N[C@@H](C)C(=O)N[C@H](C(=O)N[C@@H](CCCCN)C(=O)N[C@@H](CCCCN)C(=O)N[C@@H](Cc1ccc(O)cc1)C(=O)N[C@@H](CC(C)C)C(=O)N[C@@H](C)C(=O)N[C@@H](C)C(=O)N[C@H](C(=O)N[C@@H](CC(C)C)C(=O)NCC(=O)N[C@@H](CCCCN)C(=O)N[C@@H](CCCN=C(N)N)C(=O)N[C@@H](Cc1ccc(O)cc1)C(=O)N[C@@H](CCCCN)C(=O)N[C@@H](CCC(N)=O)C(=O)N[C@@H](CCCN=C(N)N)C(=O)N[C@H](C(=O)N[C@@H](CCCCN)C(=O)N[C@@H](CC(N)=O)C(=O)N[C@@H](CCCCN)C(N)=O)C(C)C)C(C)C)C(C)C)[C@@H](C)O (some centres undefined) [PACAP(4-38)] (H-G[Ile(3ξ)]FTDSYSRYRKQMAVKKYLAAVLGKRYKQRVKNK-NH2)	0.8
